Laboratory results as given in PMC12257544, “Fluorescent Isostere (Fluostere) of the Carboxylate: Design of hDHODH Fluorescent Inhibitors as Proof of Concept” (Journal of Medicinal Chemistry, 2025).

What was measured:
Experimental pKa = type: physicochemical
[1] = Photophysical characterization (absorption, emission, QY, lifetime); type: physicochemical; details: in ACN
Method: UV–Vis absorption spectra were recorded on a Cary60 spectrometer. Photoemission spectra, luminescence lifetimes, and quantum yields were acquired with a HORIBA Jobin Yvon IBH Fluorolog-TCSPC spectrofluorometer equipped with a Quanta-φ integrating sphere. […] Emission-decay data were collected in 2048 channels to 10000 counts in the peak channel. IRF was measures using colloidal silica suspension in H2O to scatter light. Data were analyzed with the software DAS6 (TCSPC decay-analysis software) using a nonlinear least-squares method to fit of the decay to a sum of exponentials. The value of χ^2, residuals and the autocorrelation function (Durbin-Watson parameter) were used to determine the quality of the fit. For measurements in the presence of hDHODH, 11a was incubated, at 1 μM concentration in TRIS Buffer 0.1 mM (pH 8) with 0.1% DMSO, alone or with different concentrations of recombinant protein ranging from 31.5 to 504 nM concentration. After 5 min incubation UV–Vis absorption spectra were recorded on a Cary60 spectrophotometer and photoemission spectra were acquired with a HORIBA Jobin Yvon IBH Fluorolog-TCSPC spectrofluorometer with excitation λ of 366 nm and maximum of emission at 500 nm; a.u. data were analyzed with GraphPad Prism using One Site – Specific Binding equation.

- pKa (Experimental pKa): 5.39
- Lifetime [1]: 7 ns
- QY (luminescence quantum yield) [1]: 0.42
- Stokes shift [1]: 5139 cm^–1
- λabs [1]: 313 nm
- λem [1]: 373 nm
Compound: CCOC(=O)c1c(O)nn2ccccc12 [Compound 2, Ethyl 2-hydroxypyrazolo[1,5-a]pyridine-3-carboxylate]
